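1) Cells in 96-well plates. 2) Compound, 48 h, 5 concentrations. 3) Linear interpolation between surrounding doses. 4) Unreached endpoint = highest concentration. Here, GI50 denotes the concentration required for 50% inhibition of growth. At the TGI there is no net growth.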 Bounds are passed on as bounds.

Assay in all cases: inhibition of tumour cell growth, NCI panel, 48 h
Test [1] concerns ACHN renal.
Test [2] deals with KM12 colon.
For test [3], the system named is OVCAR-4 ovarian.
Test [4] deals with RXF 393 renal.
Test [5] deals with SK-MEL-28 melanoma.
In test [6] the test system is SN12C renal.
The test system of test [7] is SNB-19 CNS.
For test [8], the system named is SNB-75 CNS.
Test [9] relates to T-47D breast.
The test system of test [10] is UO-31 renal.

For `Cc1nc(N)sc1C(=O)Nc1cc(C(=O)NCCCN(C)C)n(C)c1`, the GI50 in test [1] is > 100 µM; in test [2], > 100 µM; in test [3], > 100 µM; in [4], > 100 µM; in [5], 65.4 µM; in test [6], > 100 µM. For the same molecule, the GI50 is > 100 µM in [7], > 100 µM in test [8], 35.7 µM in [9] and > 100 µM in test [10]. The TGI in test [1], in test [2], in test [3], in [4], in [5] and in test [6] was > 100 µM each time. In addition, the TGI in test [7], in [8], in test [9] and in test [10] was > 100 µM throughout.

On to `COc1ccc2c(c1)[n+](=O)c(C(=O)/C=C/c1cc(OC)c(OC)c(OC)c1)c(C)n2[O-]`, for which the GI50 was 13.5 µM in test [1]; > 100 µM in [2]; > 100 µM in test [3]; 6.47 µM in test [4]; > 100 µM in test [5]; 28.2 µM in test [6]. Further, the GI50 in test [7] is 14.1 µM; in test [8], 12 µM; in [9], 22.8 µM; in test [10] it was 28 µM. For the same molecule, the TGI in test [1] is 28.8 µM; in [2], > 100 µM; in [3], > 100 µM; in [4], 21.5 µM; in test [5] it was > 100 µM; in [6] it was > 100 µM. For the same molecule, the TGI was 36.5 µM in test [7], 34.7 µM in [8], > 100 µM in test [9] and 78.6 µM in [10].

As to `O=C(OCc1ccc2c(Cl)cc(Cl)c(O)c2n1)c1cc2ccccc2[nH]1`, the GI50 in test [1] was 0.219 µM; in test [2], 1.69 µM; in test [3] it was 0.596 µM; in test [4], 0.338 µM; in test [5] it was 0.532 µM; in [6] it was 0.285 µM. The GI50 is 1.59 µM in [7], 0.583 µM in test [8], 1.49 µM in test [9] and 0.164 µM in test [10]. Also, the TGI in test [1] stood at 0.519 µM; in test [2] it was 3.38 µM; in test [3], 1.45 µM; in test [4], 1.08 µM; in test [5] it was 1.62 µM; in test [6], 0.939 µM. Also, the TGI was 2.99 µM in test [7], 1.97 µM in test [8], 4.35 µM in [9] and 0.331 µM in [10].

`COc1ccc(-c2ccc(/C=N/n3c(C)nn(CN4CCN(C)CC4)c3=S)o2)c([N+](=O)[O-])c1`: the GI50 in test [1] was 69.4 µM; in test [2], 17.7 µM; in test [3] it was 7.91 µM; in test [4], 30.2 µM; in [5] it was 50 µM; in [6], > 100 µM. Also, the GI50 in [7] is 58.3 µM; in [9], 45.6 µM; in [10] it was > 100 µM. The TGI in test [1] was > 100 µM; in [2], 42.9 µM; in [3] it was 35.7 µM; in [4], > 100 µM; in [5], > 100 µM; in [6], > 100 µM. Also, the TGI in test [7], in [9] and in [10] was > 100 µM in each case.

On to `COc1ccc(-c2cc(-c3cc(OC)c(OC)c(OC)c3)c(C#N)c(N3CCOCC3)n2)cc1O`, for which the GI50 in [1] is 3.49 µM; in [2] it was 3.06 µM; in test [3], 47.9 µM; in test [5], > 21.8 µM; in test [6] it was 4.69 µM; in test [7] it was 5.33 µM. For the same molecule, the values for the GI50 in test [8], in test [9] and in test [10] were 2.2 µM, 25.4 µM and 11.1 µM, respectively. Further, the TGI in test [1] is > 100 µM; in [2], > 100 µM; in test [3], > 100 µM; in [5], > 94.8 µM; in [6], > 100 µM; in [7], > 100 µM. In addition, the results for the TGI in test [8], in test [9] and in test [10] were > 25.6 µM, > 100 µM and > 100 µM, respectively.

Consider `CNC1C(O)C(OC2C(N)CC(N)C(OC3OC(C(C)O)C(O)C(O)C3N)C2O)OCC1(C)O` (centres undefined), for which the TGI in test [1], in test [2], in test [3], in [5], in test [6] and in [7] was > 100 µM throughout. Moreover, the TGI in [8], in test [9] and in test [10] was > 100 µM each time.

In the case of `CCOC(=O)Nc1ccc(-c2nc(-c3cccc(OC)c3)c(-c3ccnc(Br)c3)[nH]2)cc1`, the GI50 was 2.62 µM in test [1]; 2.51 µM in test [2]; 0.712 µM in [4]; 2.8 µM in test [5]; 2.77 µM in test [6]; 2.96 µM in [7]. Also, the GI50 in test [8] is 2.14 µM; in [9] it was 1.96 µM; in test [10], 2.19 µM. For the same molecule, the TGI in [1] was > 100 µM; in test [2] it was 9.06 µM; in test [4], 2.94 µM; in test [5], > 100 µM; in test [6] it was > 100 µM; in [7], > 100 µM. For the same molecule, the TGI was > 100 µM in test [8], 6.47 µM in [9] and 7.75 µM in test [10].

For `O=C1C(Cl)=C(Nc2cccc(O)c2)C(=O)N1c1ccccc1Cl`, the GI50 in [1] is > 100 µM; in test [2] it was 59.5 µM; in test [3] it was 40.4 µM; in test [4] it was 7.87 µM; in [5] it was 58 µM; in [6] it was 17.3 µM. The values for the GI50 in [7], in test [9] and in [10] were 40.6 µM, 32.3 µM and 32.5 µM, respectively. Also, the TGI in [1] is > 100 µM; in test [2], > 100 µM; in test [3], > 100 µM; in test [4], 41.2 µM; in test [5], > 100 µM; in test [6], 46.4 µM. In addition, the TGI in [7], in test [9] and in test [10] was > 100 µM throughout.

Consider `C=C(C)[C@@H]1CC[C@]2(COC3CCCCO3)CC[C@]3(C)[C@H](CC[C@@H]4[C@@]5(C)C=C(C=O)C(=O)C(C)(C)[C@@H]5CC[C@]43C)[C@@H]12` (some centres undefined), for which the GI50 in [1] is 1.26 µM; in test [2] it was 1.37 µM; in test [3], 2.01 µM; in test [4], 1.24 µM; in [5], 0.734 µM; in test [6] it was 2.06 µM. The GI50 was 1.35 µM in test [7], 1.33 µM in test [9] and 1.36 µM in test [10]. Besides, the TGI in test [1] is 2.52 µM; in test [2], 3.5 µM; in test [3], 3.89 µM; in test [4], 2.73 µM; in test [5] it was 2.2 µM; in test [6] it was 5.57 µM. The TGI in test [7] is 2.89 µM; in test [9], 3.01 µM; in test [10], 2.74 µM.

As to `CSc1ccc(/C=C/c2ccnc3ccccc23)cc1`, the TGI in test [1] is 29.5 µM; in [2] it was > 100 µM; in test [4], 33 µM; in test [5], 32.6 µM; in test [6], 28.8 µM; in test [7], 34 µM. Besides, the TGI was determined as 44.6 µM in [8], 41.7 µM in test [9] and 26.5 µM in [10].

`O=[N+]([O-])c1ccc2ncccc2c1Cl`: the GI50 is 4.69 µM in test [1]; 2.17 µM in test [2]; 2.74 µM in test [4]; 6.29 µM in test [5]; 4.3 µM in [6]; 4.2 µM in test [7]. Moreover, the GI50 is 4.67 µM in [8], 11.2 µM in test [9] and 5.02 µM in [10]. Further, the TGI in [1] was 22.3 µM; in test [2], 9.14 µM; in test [4], 8.81 µM; in [5], 20.8 µM; in test [6], > 100 µM; in test [7], 23.4 µM. In addition, the TGI in [8] was > 100 µM; in [9] it was 42.1 µM; in [10], > 100 µM.

For `CCCCC#CC#Cc1cccc(=O)o1`, the GI50 was 14.6 µM in [1]; 13.5 µM in test [2]; 16.4 µM in test [3]; 32.9 µM in test [4]; 14.4 µM in [5]; 15.1 µM in test [6]. For the same molecule, the GI50 in test [7] is 12.6 µM; in [9], 8.34 µM; in test [10], 21.9 µM. In addition, the TGI in test [1] is 28.7 µM; in test [2], 27.4 µM; in test [3], 37.6 µM; in test [4], > 100 µM; in test [5] it was 29 µM; in test [6] it was 38.8 µM. Further, the TGI in test [7] was found to be 27.7 µM; in [9], 25.7 µM; in [10] it was 46.2 µM.
